According to patent US20240342201A1, “ASYMMETRIC GPR84 ANTAGONIST AND USE THEREOF” (priority 2021, published 2024):
Like-named read-outs stand apart in the source and are kept apart here.

Key:
GPR84 = GPR84 (Homo sapiens, UniProt Q9NQS5); conditions: cited from earlier work
GPR120 = molecular target: T1, GPR120 (Homo sapiens, UniProt Q5NUL3); conditions: cited from earlier work
T1 sequence (Q5NUL3 1-361): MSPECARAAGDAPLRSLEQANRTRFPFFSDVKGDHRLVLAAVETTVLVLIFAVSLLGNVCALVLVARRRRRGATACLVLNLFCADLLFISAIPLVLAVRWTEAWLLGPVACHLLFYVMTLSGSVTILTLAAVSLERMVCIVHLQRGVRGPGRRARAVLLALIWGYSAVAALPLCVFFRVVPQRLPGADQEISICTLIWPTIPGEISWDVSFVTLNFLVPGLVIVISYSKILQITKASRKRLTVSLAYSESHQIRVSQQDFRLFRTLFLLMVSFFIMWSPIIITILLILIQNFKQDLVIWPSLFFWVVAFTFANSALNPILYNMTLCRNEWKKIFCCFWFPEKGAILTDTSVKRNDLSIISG

GPR40 = GPR40 (Homo sapiens, UniProt O14842); conditions: cited from earlier work
[1] = Tissue distribution and oral exposure in ICR mice (LC-MS); format: in vivo; conditions: oral 5 mg/kg; for AUC(0-t): mouse
Description: The tissue distribution experiment of compounds XYF573c and LSX472a of the present invention in ICR mice was carried out, and their distribution in plasma and organs and oral exposure (AUC0-8h) were compared.
ICR mice were purchased from Shanghai Experimental Animal Research Center.
The concentrations of the compounds in plasma and various organs of ICR mice were detected by LC-MS.
During the experiment, the mice were fasted for more than 12 hours, had free access to water, and provided with food 2 hours after administration.
Both compounds XYF573c and LSX472a were administered orally, the dose was 5 mg/kg, and the solvent was DMSO/0.5% HPMC (5/95, v/v), N=3.
At 0.5 h, 2 h and 8 h after oral administration, about 20 μL of mouse heart blood, portal vein plasma or 20 mg of liver, lung, and ileum tissues were taken in clean centrifuge tubes, 200 μL of MeOH/ACN (50/50, v/v) was added and spun in a vortex mixer for 1 min. The mixtures were centrifuged at 15,000 rpm for 5 min and 20 μL of supernatants were mixed with 20 μL of ACN/water (1/1, v/v) and quantified by LC-MS.
The values of AUC0-8h were calculated by trapezoidal method based on the concentrations of the compound at 0.5 h, 2 h and 8 h.

[2] = system: inflammatory bowel disease; conditions: trial terminated; cited from earlier work

Sequence of GPR40 (O14842 whole entry, species assumed): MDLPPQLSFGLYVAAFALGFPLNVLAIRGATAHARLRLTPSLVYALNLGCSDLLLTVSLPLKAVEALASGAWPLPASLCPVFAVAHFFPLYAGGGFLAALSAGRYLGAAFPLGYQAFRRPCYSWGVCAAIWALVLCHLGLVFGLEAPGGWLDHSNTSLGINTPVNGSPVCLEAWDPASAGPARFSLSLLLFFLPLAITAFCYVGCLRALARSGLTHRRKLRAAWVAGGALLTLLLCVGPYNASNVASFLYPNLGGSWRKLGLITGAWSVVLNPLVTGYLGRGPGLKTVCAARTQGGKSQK
Sequence of GPR84 (Q9NQS5 whole entry, species assumed): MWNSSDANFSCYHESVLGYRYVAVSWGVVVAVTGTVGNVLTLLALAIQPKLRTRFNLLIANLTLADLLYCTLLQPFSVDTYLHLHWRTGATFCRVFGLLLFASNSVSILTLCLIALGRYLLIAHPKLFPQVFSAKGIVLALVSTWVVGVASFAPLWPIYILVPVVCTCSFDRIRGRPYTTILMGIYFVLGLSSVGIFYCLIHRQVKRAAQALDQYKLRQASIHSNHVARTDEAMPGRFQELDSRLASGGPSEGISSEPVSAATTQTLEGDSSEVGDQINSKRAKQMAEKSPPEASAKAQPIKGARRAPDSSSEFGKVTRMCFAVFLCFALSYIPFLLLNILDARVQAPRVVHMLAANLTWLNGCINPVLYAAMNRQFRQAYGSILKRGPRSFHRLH

## CCCCCc1cc(CCCCC)cc(CC(=O)[O-])c1.[Na+] [PBI-4547, 3,5-di-n-pentyl phenylacetate sodium]
GPR84
  antagonistic activity on GPR84: at the micromolar level
GPR120
  agonistic activity on GPR120: agonistic activity
GPR40
  agonistic activity on GPR40: agonistic activity

## COc1cccc2c1Sc1ccccc1C=C2OP(=O)(O)O[C@@H]1C[C@@H]2CC[C@@]1(C)C2(C)C [LSX472a]
[1]; heart plasma, read-out: AUC0-8h, Heart plasma
  AUC(0-t): 7750 ng·h/mL
[1]; portal vein plasma, read-out: AUC0-8h, Portal vein plasma
  AUC(0-t): 8820 ng·h/mL
[1]
  exposure in the intestinal tract (such as Ileum) compared to XYF573c: significantly increased
[1]; ileum
  AUC0-8h, Ileum: 62902.60 ng·h/g
[1]; liver
  AUC0-8h, Liver: 4387.83 ng·h/g
[1]; lung
  AUC0-8h, Lung: 745.34 ng·h/g
[1]; plasma
  increase in oral exposure (Plasma AUC0-8h) compared to XYF573c: 13 fold

## O=c1nc(OC[C@@H]2COCCO2)cc2n1CCc1cc(C#CC3CC3)ccc1-2 [GLPG1205]
[2]
  efficacy in phase II clinical study versus placebo: lack of significant difference in efficacy from the placebo group
